Entries after “also recorded” stand apart in the source; their conditions may differ. Where two headings read alike, the source gives them in different places.
Key:
[1] = test system: Ch1.Es esophageal fibroblasts; test: Protein isoprenylation in Ch1.Es fibroblasts (immunoblot with anti-hDNAJ and anti-Rap1A markers); assay type: cell-based
Description: (§1) Cells were treated for 24 hours and protein lysates were analyzed for suppression of protein isoprenylation. Markers included either anti-hDNAJ, a farnesylated protein that migrates more slowly when farnesylation is absent (two bands observed) or anti-Rap1A, which we have shown previously to bind preferentially to Rap1A if isoprenylation is blocked (presence of a band indicates absence of protein geranylgeranylation) (See Reszka, A. A., Halasy-Nagy, J. and Rodan, G. A. Molecular Pharmacology 59:193-202, 2001).
(A) Cells pretreated for 24 hours with nothing or the squalene synthase inhibitor, zaragozic Acid A (Zara-A) at 3 μM (three lanes indicated).
as §1, with “geranylgeranylation. See FIG. 1.” for “geranylgeranylation) (See Reszka, A. A., Halasy-Nagy, J. and Rodan, G. A. Molecular Pharmacology 59:193-202, 2001).”
(A) Cells pretreated for 24 hours with nothing or the squalene synthase inhibitor, Zaragozic Acid A (Zara-A) at 3 μM (three lanes indicated).

[2] = test system: Ch1.Es esophageal fibroblasts; test: Apoptosis in Ch1.Es cells (cell rounding and detachment from the dish); assay type: cell-based; settings: for induction of apoptosis: bisphosphonate 300 μM, 24 hours; for suppression of ALN-induced apoptosis in absence of lipoprotein / suppression of RIS-induced apoptosis in absence of lipoprotein: FIG. 3: LPDS, Zara-A 10 μM; for suppression of ALN-induced apoptosis in absence of lipoprotein: ALN 300 μM 24 hours; for suppression of RIS-induced apoptosis in absence of lipoprotein: RIS 300 μM 24 hours
Description: Apoptosis is observed as cell rounding and detachment from the dish.
Ch1.Es cells were grown for 24 hours in either fetal bovine serum (FBS) (top panels) or lipoprotein-deficient […] (LPDS) in the absence (middle) or presence (bottom) of Zara-A (10 μM). […] (300 μM). Phenotypes were scored as in FIG. 2. The suppression of apoptosis is near complete after inclusion of Zara-A.

[3] = test system: Ch1.Es esophageal fibroblasts; test: Activation of pro-apoptotic kinases (in-gel kinase assay, phospho-specific immunoblotting); assay type: cell-based; settings: 300 μM, 24 hours
Description: Cell lysates were analyzed using an in-gel kinase assay (top) or by immuno-blotting with anti-phospho-specific antibodies recognizing active MAP kinases (Erk1 and 2), p38, or Jun N-terminal kinase (Jnk).

skin [4] = test: Skin irritation after subcutaneous injection, histology (hematoxylin and eosin, affected area); assay type: in vivo, Rats; settings: 5 days
Description: Skin was harvested after necropsy, fixed with formalin, thin-sectioned and stained with hematoxylin and eosin. Area was determined by measuring the thickness and length of each affected area and is represented vs. the H2O control.

skin [5] = settings: subcutaneous, 5 days; for effect of coadministered Zara-A on ALN-induced skin irritation / thickening: ALN 0.5 mg/kg with Zara-A 3 μg/kg; for effect of coadministered Zara-A on ALN-induced skin irritation / thickening / effect of coadministered Zara-A on RIS-induced skin irritation / thickening: P≦0.01; for effect of coadministered Zara-A on RIS-induced skin irritation / thickening: RIS 0.5 mg/kg with Zara-A 3 μg/kg
[6] = ALN 300 μM, 24 hours, absence of Zara-A
[7] = Zara-A 0.1-10 μM pretreated 24 hours, then ALN 300 μM 24 hours
[8] = listed as squalene synthase inhibitor

| SMILES | inhibition of Rap1A geranylgeranylation [1, 6] | inhibition of hDNAJ farnesylation [1, 6] | induction of apoptosis [2] | activation of pro-apoptotic kinases [3] | skin irritation (skin [4]; 0.5 mg/kg) | volume of affected skin area (skin [5]; 0.5 mg/kg, vehicle control 50-100) [mm^3] | effect of Zara-A pretreatment on ALN inhibition of Rap1A geranylgeranylation ([1]; Zara-A 3 μM pretreated 24 hours, then ALN 300 μM 24 hours) | effect of Zara-A on capacity of ALN to inhibit Rap1A geranylgeranylation [1, 7] | effect of Zara-A on capacity of ALN to inhibit hDNAJ farnesylation [1, 7] | suppression of ALN-induced apoptosis ([2]; FIG. 2: Zara-A 24 hours, then ALN 300 μM 24 hours) | suppression of ALN-induced apoptosis in absence of lipoprotein [2] | suppression of ALN-induced apoptosis in absence of lipoprotein [2, 8] | suppression of RIS-induced apoptosis in absence of lipoprotein [2] | suppression of RIS-induced apoptosis in absence of lipoprotein [2, 8] | suppression of ALN-induced skin irritation (skin [4]; FIG. 6: ALN 0.5 mg/kg with Zara-A 3 μg/kg) | effect of coadministered Zara-A on ALN-induced skin irritation / thickening (skin [5]) | effect of coadministered Zara-A on ALN-induced skin irritation / thickening (skin [5]; [8]) | effect of coadministered Zara-A on RIS-induced skin irritation / thickening (skin [5]) | effect of coadministered Zara-A on RIS-induced skin irritation / thickening (skin [5]; [8]) |
| --- | --- | --- | --- | --- | --- | --- | --- | --- | --- | --- | --- | --- | --- | --- | --- | --- | --- | --- | --- |
| NCCCC(O)(P(=O)(O)O)P(=O)(O)O [ALN, 4-amino-1-hydroxybutylidene-1,1-bisphosphonic acid monosodium trihydrate] | strongly inhibits | strongly inhibits | induced | activate | – | – | – | – | – | – | – | – | – | – | – | – | – | – | – |
| O=P(O)(O)C(O)(Cc1cccnc1)P(=O)(O)O [RIS, 1-hydroxy-2-(3-pyridinyl)-ethylidene-1,1-bisphosphonic acid] | – | – | induced | activate | Skin irritation induced | 240 | – | – | – | – | – | – | – | – | – | – | – | – | – |
| C=C(CC[C@]12O[C@H](C(=O)O)[C@@](O)(C(=O)O)[C@](C(=O)O)(O1)[C@H](OC(=O)/C=C/[C@@H](C)C[C@@H](C)CC)[C@H]2O)[C@@H](OC(C)=O)[C@H](C)Cc1ccccc1 [Zara-A, zaragozic Acid A] | – | – | – | – | – | – | reduced; also recorded: diminished | dose-dependently reduces; also recorded: dose-dependently diminished | dose-dependently reduces; also recorded: dose-dependently diminished | suppression | near complete | maximally suppresses | near complete | maximally suppresses | suppresses | significantly reduced | suppresses | significantly reduced | suppresses |
